Experiment [1] in a line: Inhibition of bovine recombinant PI3K p110delta expressed in Sf21 insect cells using phosphatidylinositol as substrate after 1 hr by phosphoimaging. Set-up: species or system Bos taurus.
Experiment [2] deals with Phosphatidylinositol 4,5-bisphosphate 3-kinase catalytic subunit beta isoform (Homo sapiens, UniProt P42338). In words: Inhibition of human recombinant PI3K p110beta expressed in Sf21 insect cells using phosphatidylinositol as substrate after 1 hr by phosphoimaging.
Phosphatidylinositol 4,5-bisphosphate 3-kinase catalytic subunit beta isoform, sequence (P42338 whole entry, canonical isoform): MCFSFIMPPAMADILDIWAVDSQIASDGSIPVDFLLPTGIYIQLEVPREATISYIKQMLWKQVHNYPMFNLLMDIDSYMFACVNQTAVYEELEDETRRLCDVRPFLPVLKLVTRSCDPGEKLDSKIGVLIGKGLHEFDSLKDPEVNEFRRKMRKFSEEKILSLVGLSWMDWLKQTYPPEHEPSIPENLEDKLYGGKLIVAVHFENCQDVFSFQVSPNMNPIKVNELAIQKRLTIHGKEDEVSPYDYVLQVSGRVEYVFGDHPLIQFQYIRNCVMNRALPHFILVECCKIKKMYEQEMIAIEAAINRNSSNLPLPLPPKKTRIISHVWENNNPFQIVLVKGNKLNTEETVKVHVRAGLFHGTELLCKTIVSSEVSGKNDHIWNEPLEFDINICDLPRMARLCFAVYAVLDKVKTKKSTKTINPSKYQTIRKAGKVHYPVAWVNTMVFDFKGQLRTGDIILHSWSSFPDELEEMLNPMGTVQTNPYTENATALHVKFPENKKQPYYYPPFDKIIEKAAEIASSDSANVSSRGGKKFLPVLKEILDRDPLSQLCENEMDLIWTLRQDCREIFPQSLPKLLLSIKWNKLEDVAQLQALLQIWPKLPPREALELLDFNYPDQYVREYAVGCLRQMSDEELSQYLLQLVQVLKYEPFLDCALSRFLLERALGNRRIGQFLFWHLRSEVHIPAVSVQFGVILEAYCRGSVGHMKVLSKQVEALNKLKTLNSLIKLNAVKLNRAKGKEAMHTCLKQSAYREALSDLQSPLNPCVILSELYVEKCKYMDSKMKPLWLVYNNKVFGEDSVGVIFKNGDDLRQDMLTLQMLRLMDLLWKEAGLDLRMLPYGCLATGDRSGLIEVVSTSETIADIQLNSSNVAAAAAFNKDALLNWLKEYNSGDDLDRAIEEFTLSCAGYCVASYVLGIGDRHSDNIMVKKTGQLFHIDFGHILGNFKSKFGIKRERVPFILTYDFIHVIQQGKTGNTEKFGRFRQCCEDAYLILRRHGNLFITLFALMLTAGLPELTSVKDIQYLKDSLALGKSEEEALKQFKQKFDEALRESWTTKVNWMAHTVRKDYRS
Experiment [3] addresses Phosphatidylinositol 4,5-bisphosphate 3-kinase catalytic subunit alpha isoform (Mus musculus, UniProt P42337). The experiment in a line: Inhibition of mouse recombinant PI3K p110alpha expressed in Sf21 insect cells using phosphatidylinositol as substrate after 1 hr by phosphoimaging.
Experiment [4] is described as follows: cells. To be noted: Homo sapiens, NZOV9.
A short description of experiment [5]: cells. The following applies: Homo sapiens, NZB5.

A value given as a limit tells only on which side of the number the result lay.

Phosphatidylinositol 4,5-bisphosphate 3-kinase catalytic subunit alpha isoform, sequence (P42337 whole entry, canonical isoform): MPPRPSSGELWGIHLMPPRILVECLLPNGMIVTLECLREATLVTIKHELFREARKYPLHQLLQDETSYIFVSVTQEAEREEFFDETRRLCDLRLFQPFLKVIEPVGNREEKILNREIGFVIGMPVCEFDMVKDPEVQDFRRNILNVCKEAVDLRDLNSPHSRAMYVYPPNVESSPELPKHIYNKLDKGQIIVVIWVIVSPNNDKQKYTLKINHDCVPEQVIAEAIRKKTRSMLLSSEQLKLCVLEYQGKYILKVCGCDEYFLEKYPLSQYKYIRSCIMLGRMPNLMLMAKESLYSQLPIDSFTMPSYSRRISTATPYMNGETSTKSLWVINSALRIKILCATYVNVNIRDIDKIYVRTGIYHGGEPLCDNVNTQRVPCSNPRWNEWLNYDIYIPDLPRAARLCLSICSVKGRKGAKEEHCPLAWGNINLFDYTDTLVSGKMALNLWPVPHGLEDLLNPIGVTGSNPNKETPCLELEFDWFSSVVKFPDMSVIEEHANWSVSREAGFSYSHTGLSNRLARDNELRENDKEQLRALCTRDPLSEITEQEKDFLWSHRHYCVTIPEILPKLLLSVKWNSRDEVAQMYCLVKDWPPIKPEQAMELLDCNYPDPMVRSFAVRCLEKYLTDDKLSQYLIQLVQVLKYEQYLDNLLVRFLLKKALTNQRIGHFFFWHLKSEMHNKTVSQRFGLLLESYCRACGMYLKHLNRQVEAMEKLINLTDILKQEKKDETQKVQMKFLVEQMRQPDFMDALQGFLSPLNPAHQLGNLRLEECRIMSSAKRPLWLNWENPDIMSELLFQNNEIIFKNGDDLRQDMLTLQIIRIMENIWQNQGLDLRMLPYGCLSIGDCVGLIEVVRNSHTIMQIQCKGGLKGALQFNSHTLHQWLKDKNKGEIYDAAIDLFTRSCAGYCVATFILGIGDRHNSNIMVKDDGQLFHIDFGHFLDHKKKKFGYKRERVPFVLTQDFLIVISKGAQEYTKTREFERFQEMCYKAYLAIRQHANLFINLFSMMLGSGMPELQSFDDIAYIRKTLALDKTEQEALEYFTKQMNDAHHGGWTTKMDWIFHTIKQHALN

Take `COc1cncc2c1nc(C(F)F)n2-c1nc(N2CCOCC2)nc(N2CCOCC2)n1`: the IC50 in experiment [1] was found to be 1600 nM; in experiment [2], 1030 nM; in experiment [3] it was 1290 nM; in the experiment “cells [4]” it was 2600 nM; in the experiment “cells [5]” it was 5600 nM.

In the case of `CN(C)C(=O)c1cccc2c1nc(C(F)F)n2-c1nc(N2CCOCC2)nc(N2CCOCC2)n1`, the IC50 in experiment [1] is greater than 1000 nM; in experiment [2], greater than 1000 nM; in experiment [3] it was greater than 1000 nM; in the experiment “cells [4]”, 240 nM; in “cells [5]”, 730 nM.

Turning to `CCCCOc1cccc2c1nc(C(F)F)n2-c1nc(N2CCOCC2)nc(N2CCOCC2)n1`, the IC50 in experiment [1] was 156 nM; in experiment [2], 2400 nM; in “cells [4]” it was 210 nM; in the experiment “cells [5]” it was 230 nM.

`FC(F)c1nc2ccccc2n1-c1cc(N2CCOCC2)nc(N2CCOCC2)n1`: the IC50 was determined as 13 nM in experiment [1], 170 nM in experiment [2], 88 nM in experiment [3] and 300 nM in “cells [4]”.

In the case of `CN(C)c1cccc2c1nc(C(F)F)n2-c1nc(N2CCOCC2)nc(N2CCOCC2)n1`, the IC50 in experiment [1] is 539 nM; in experiment [2], greater than 1000 nM; in experiment [3] it was 5400 nM; in “cells [4]” it was 2540 nM; in the experiment “cells [5]” it was 60 nM.

On to `CNc1cc(OC)c2nc(C(F)F)n(-c3nc(N4CCOCC4)nc(N4CCOCC4)n3)c2c1`, for which the IC50 was determined as 0.52 nM in experiment [1]; 0.91 nM in experiment [2]; 2 nM in experiment [3]; 16 nM in “cells [4]”; 390 nM in the experiment “cells [5]”.

As to `COC(=O)c1cccc2c1nc(C(F)F)n2-c1nc(N2CCOCC2)nc(N2CCOCC2)n1`, the IC50 turned out to be 65 nM in experiment [1]; 310 nM in experiment [2]; 9.3 nM in experiment [3]; 470 nM in the experiment “cells [4]”; 2800 nM in the experiment “cells [5]”.

For `CC(C)Oc1cccc2c1nc(C(F)F)n2-c1nc(N2CCOCC2)nc(N2CCOCC2)n1`, the IC50 in experiment [1] was 430 nM; in experiment [2], 2100 nM; in experiment [3], 364 nM; in “cells [4]”, 280 nM; in “cells [5]” it was 70 nM.

On to `COc1c(O)ccc2c1nc(C(F)F)n2-c1nc(N2CCOCC2)nc(N2CCOCC2)n1`, for which the IC50 in experiment [1] worked out at 1.8 nM; in experiment [2] it was 94 nM; in the experiment “cells [4]”, 11 nM.

On to `CS(=O)(=O)Cc1nc2ccccc2n1-c1nc(N2CCOCC2)nc(N2CCOCC2)n1`, for which the IC50 came out at 54 nM in experiment [1]; 250 nM in experiment [2]; 480 nM in experiment [3]; 440 nM in the experiment “cells [4]”; 250 nM in “cells [5]”.

As to `COc1cccc2c1nc(C(F)F)n2-c1cc(N2CCOCC2)nc(N2CCOCC2)n1`, the IC50 in experiment [1] came out at 14 nM; in experiment [2] it was 40 nM; in experiment [3], 4 nM.

For the compound `C[S+]([O-])Cc1nc2ccccc2n1-c1nc(N2CCOCC2)nc(N2CCOCC2)n1` (configuration not stated), the IC50 came out at 35 nM in experiment [1]; 230 nM in experiment [2]; 590 nM in experiment [3]; 490 nM in “cells [4]”; 400 nM in the experiment “cells [5]”.

For `CCOc1cccc2c1nc(C(F)F)n2-c1nc(N2CCOCC2)nc(N2CCOCC2)n1`, the IC50 in experiment [1] amounted to 5.5 nM; in experiment [2], 104 nM; in experiment [3] it was 2.7 nM; in the experiment “cells [4]”, 40 nM; in “cells [5]” it was 70 nM.

Turning to `N#Cc1cccc2c1nc(C(F)F)n2-c1nc(N2CCOCC2)nc(N2CCOCC2)n1`, the IC50 in experiment [1] was 66 nM; in experiment [2] it was greater than 1000 nM; in experiment [3] it was 61 nM; in “cells [4]”, greater than 20000 nM; in “cells [5]” it was greater than 20000 nM.

With `FC(F)c1nc2ccccc2n1-c1nc(N2CCOCC2)cc(N2CCOCC2)n1`, the IC50 stood at 10 nM in experiment [1]; 72 nM in experiment [2]; 30 nM in experiment [3]; 260 nM in “cells [4]”; 120 nM in the experiment “cells [5]”.

For `CSc1nc2ccccc2n1-c1nc(N2CCOCC2)nc(N2CCOCC2)n1`, the IC50 in experiment [1] was 270 nM; in experiment [2] it was greater than 1000 nM; in experiment [3] it was 2900 nM; in the experiment “cells [4]” it was 200 nM; in “cells [5]” it was 200 nM.

Turning to `FC(F)(F)c1nc2ccccc2n1-c1nc(N2CCOCC2)nc(N2CCOCC2)n1`, the IC50 came out at 70 nM in experiment [1]; 461 nM in experiment [2]; 202 nM in experiment [3]; 700 nM in the experiment “cells [4]”; 900 nM in “cells [5]”.

For `Nc1cccc2c1nc(C(F)F)n2-c1nc(N2CCOCC2)nc(N2CCOCC2)n1`, the IC50 in experiment [1] was found to be 0.85 nM; in experiment [2] it was 41 nM; in experiment [3], 4.8 nM; in the experiment “cells [4]” it was 80 nM; in “cells [5]” it was 50 nM.

With `Cc1nc2ccccc2n1-c1nc(N2CCOCC2)nc(N2CCOCC2)n1`, the IC50 in experiment [1] is 35 nM; in experiment [2], 289 nM; in experiment [3] it was 143 nM; in the experiment “cells [4]”, 600 nM; in the experiment “cells [5]” it was 280 nM.

For `CCCOc1cccc2c1nc(C(F)F)n2-c1nc(N2CCOCC2)nc(N2CCOCC2)n1`, the IC50 in experiment [1] turned out to be 95 nM; in experiment [2] it was 518 nM; in experiment [3], 16 nM; in “cells [4]”, 50 nM; in the experiment “cells [5]” it was 70 nM.

As to `FCc1nc2ccccc2n1-c1nc(N2CCOCC2)nc(N2CCOCC2)n1`, the IC50 was 13 nM in experiment [1]; 53 nM in experiment [2]; 34 nM in experiment [3]; 350 nM in “cells [4]”; 390 nM in the experiment “cells [5]”.

Turning to `OCc1cccc2c1nc(C(F)F)n2-c1nc(N2CCOCC2)nc(N2CCOCC2)n1`, the IC50 in experiment [1] is 12 nM; in experiment [2], 68 nM; in experiment [3], 27 nM; in the experiment “cells [4]” it was 170 nM; in “cells [5]”, 300 nM.

In the case of `CNc1cccc2c1nc(C(F)F)n2-c1nc(N2CCOCC2)nc(N2CCOCC2)n1`, the IC50 came to 67 nM in experiment [1]; 480 nM in experiment [2]; 210 nM in experiment [3]; 260 nM in “cells [4]”; 110 nM in the experiment “cells [5]”.

Take `c1ccc2c(c1)ncn2-c1nc(N2CCOCC2)nc(N2CCOCC2)n1`: the IC50 is 142 nM in experiment [1]; 1540 nM in experiment [2]; 265 nM in experiment [3]; 300 nM in “cells [4]”; 1500 nM in “cells [5]”.

For the compound `OCc1nc2ccccc2n1-c1nc(N2CCOCC2)nc(N2CCOCC2)n1`, the IC50 in experiment [1] is 5470 nM; in experiment [2], greater than 1000 nM; in experiment [3], greater than 1000 nM; in “cells [4]”, 5500 nM; in the experiment “cells [5]”, 750 nM.

On to `COc1cccc2c1nc(C(F)F)n2-c1nc(N2CCOCC2)cc(N2CCOCC2)n1`, for which the IC50 in experiment [1] was determined as 18 nM; in experiment [2], 35 nM; in experiment [3], 5.1 nM; in the experiment “cells [4]”, 30 nM; in “cells [5]”, 60 nM.

As to `CS(=O)(=O)c1nc2ccccc2n1-c1nc(N2CCOCC2)nc(N2CCOCC2)n1`, the IC50 is 76 nM in experiment [1]; 383 nM in experiment [2]; 203 nM in experiment [3]; 2000 nM in “cells [4]”; 10000 nM in the experiment “cells [5]”.

In the case of `NC(=O)c1cccc2c1nc(C(F)F)n2-c1nc(N2CCOCC2)nc(N2CCOCC2)n1`, the 50% inhibitory concentration (IC50) in experiment [1] was 1000 nM; in experiment [2], greater than 1000 nM; in experiment [3], greater than 1000 nM; in “cells [5]” it was 760 nM.

With `Oc1cccc2c1nc(C(F)F)n2-c1nc(N2CCOCC2)cc(N2CCOCC2)n1`, the IC50 in experiment [1] came out at 0.27 nM; in experiment [2] it was 0.81 nM; in experiment [3], 1.5 nM; in the experiment “cells [5]”, 100 nM.

As usually defined, the IC50 is the midpoint of a concentration-inhibition curve.

For the origin of these results see ChEMBL document CHEMBL1909493, “Synthesis and biological evaluation of novel analogues of the pan class I phosphatidylinositol 3-kinase (PI3K) inhibitor 2-(difluoromethyl)-1-[4,6-di(4-morpholinyl)-1,3,5-triazin-2-yl]-1H-benzimidazole (ZSTK474)” (J Med Chem, 2011).
